Test results from patent US20090105155A1, “TRUNCATED LHRH FORMULATIONS” (priority 2004, published 2009).
Where no end group is shown, it is not given here.

Legend:
Assay type in all cases: in vivo
LHRH [1] = experiment: Anti-LHRH antibody titres induced by LHRH (6-10) and LHRH (4-10) (Example 3); conditions: Beagles/foxhound dogs; 35 nmoles total peptides (pool p4, p10, p24, p25, p27, p35, p62) with Iscomatrix; week 0, 4, 14; compared with LHRH (6-10)
Description: (§1) Beagles/foxhound dogs were divided into two groups. One group (15 dogs) received three doses of 35 nmoles of total peptides consisting of a pool of peptides p4, p10, p24, p25, p27, p35 and p62 coupled to LHRH (6-10).
(§2) A second group (15 dogs) received three doses of 35 nmoles of total peptides consisting of a pool of peptides p4, p10, p24, p25, p27, p35 and p62 coupled to LHRH (4-10).
(§3) The dogs received the three doses of vaccine in week 0, 4 and 14 respectively.
(§4) 1 to 1.5 mg of each of the peptides were weighed out and dissolved in 100 ul of 4 M urea separately. The amounts of the solutions corresponding to 5 nmoles of each peptide were mixed and diluted with isotonic saline to the designated dose volume for injection (1 ml per dose). For each dose 150 ug of Iscomatrix•® (CSL, Melbourne, Australia) was also added as adjuvant. The vaccine was given to dogs in the scruff of the neck.

LHRH [2] = experiment: Testosterone and progesterone levels following vaccination with LHRH (6-10) or LHRH (4-10) (Example 3); conditions: Beagles/foxhound dogs, 35 nmoles total peptides, 7-peptide pool with Iscomatrix; for hormone breakthrough: testosterone and progesterone
Description: as §1, §2, §3, §4

LHRH [3] = experiment: Anti-LHRH antibody titres induced by different priming and boosting regimes (Example 2); conditions: Beagles/foxhound dogs, 5 nmoles total peptides (pool p25, p35, p62) with Iscomatrix; for titres of antibodies following the second dose of vaccine: doses week 0, 4, 14, LHRH (2-10) compared with LHRH (6-10)
Text: (§5) Beagles/foxhound dogs were divided into three groups. One group (12 dogs) received three doses of 5 nmoles of total peptides consisting of a pool of peptides p25, p35 and p62 coupled to LHRH (6-10).
(§6) A second group (6 dogs) received three doses of 5 nmoles of total peptides consisting of a pool of peptides p25, p35 and p62 coupled to LHRH (2-10).
(§7) A third group (6 dogs) received three doses of 5 nmoles of total peptides consisting of a pool of peptides p25, p35 and p62 coupled to LHRH (2-10) as the first dose. For the second and third dose the vaccine was the same pool of peptides but coupled to LHRH (6-10).
as §3
as §4, with “to 1.7” for “to 5”

LHRH [4] = experiment: Testosterone and progesterone levels in vaccinated dogs (Example 2); conditions: Beagles/foxhound dogs; two doses; proportion of animals, compared with the other regimes
Text: as §5, §6, §7, §3
as §4, with “to 1.7” for “to 5”

Substance: LHRH (4-10): Vaccine: pool of peptides p4, p10, p24, p25, p27, p35 and p62 coupled to LHRH (4-10) (SYGLRPG), with Iscomatrix adjuvant
- titres of antibodies (LHRH [1]): Higher titres
- effect on progesterone levels (LHRH [2]; compared with LHRH (6-10)): more striking effect
- effect on testosterone levels (LHRH [2]; compared with LHRH (6-10)): more striking effect
- hormone breakthrough (LHRH [2]): no animals show hormone breakthrough

Substance: LHRH (6-10): Vaccine: T helper epitope peptides coupled to LHRH (6-10), Iscomatrix; pool p25, p35, p62 (Example 2) or seven-peptide pool (Example 3) (GLRPG; ends and bridges not checked; also: coupled to T helper peptide pool; UniProt P01148 29-33, looked up, fragment)
- titres of antibodies following the second dose of vaccine (LHRH [3]): little apparent difference
- levels of progesterone (LHRH [4]): lower levels
- levels of testosterone (LHRH [4]): lower levels
- hormone breakthrough (LHRH [2]): hormone breakthrough

Substance: LHRH (2-10): Vaccine: pool of peptides p25, p35 and p62 coupled to LHRH (2-10), with Iscomatrix adjuvant (HWSYGLRPG; ends and bridges not checked; also: coupled to T helper peptide pool; UniProt P01148 25-33, looked up, fragment)
- titres of antibodies following the second dose of vaccine (LHRH [3]): little apparent difference

Substance: LHRH (2-10)-LHRH (6-10): Regime: p25, p35, p62 pool coupled to LHRH (2-10) as first dose, same pool coupled to LHRH (6-10) for second and third dose (HWSYGLRPG; ends and bridges not checked; also: coupled to T helper peptide pool; UniProt P01148 25-33, looked up, fragment)
- titre in the primary antibody response (LHRH [3]; comparison of the three regimes): lowest titres
